Legend:
myotonia and myalgia = test: Previous treatments for myotonia and myalgia (case history)
dystrophic mdx mice = settings: injection; mostly via activation of TRPV1 and TRPA1; cited from earlier work
[1] = Patient 6 (CLCN1-congenital myotonia)
[2] = Patient 2 (DM2), suspended also for risk of cardiac arrhythmias

| SMILES | myalgia under previous treatment (myotonia and myalgia; Patient 2 (DM2)) | myotonia under previous treatment (myotonia and myalgia; [1]) | myotonia under previous treatment (myotonia and myalgia; [2]) | further results |
| --- | --- | --- | --- | --- |
| COc1ccccc1OCC(O)COC(N)=O (stereo not shown) [methocarbamol] | unsuccessfully treated | – | – | – |
| C=C(C)[C@@H]1CCC(C)=C[C@H]1c1c(O)cc(CCCCC)cc1O [CBD, cannabidiol] | – | – | – | effect in dystrophic mdx mice (dystrophic mdx mice): promoted myotube formation and reduced inflammation |
| Nc1nnc(-c2cccc(Cl)c2Cl)c(N)n1 [lamotrigine] | – | no relevant improvement of myotonia | – | – |
| CC(C)C[C@H](CN)CC(=O)O [pregabalin] | unsuccessfully treated | – | inefficacy | – |
| O=C(NCC1CCCCN1)c1cc(OCC(F)(F)F)ccc1OCC(F)(F)F (stereo not shown) [flecainid] | – | no relevant improvement of myotonia | – | – |
| Cc1cccc(C)c1OCC(C)N (stereo not shown) [mexiletine] | – | improved the myotonia | inefficacy | drug-related side effect of previous treatment (myotonia and myalgia; Patient 6, resolved on drug discontinuation): severe major depression |
| CC(C)Cc1ccc(C(C)C(=O)O)cc1 (stereo not shown) [ibuprofen] | unsuccessfully treated | – | – | – |
| NC(=O)N1c2ccccc2C=Cc2ccccc21 [carbamazepine] | – | no relevant improvement of myotonia | inefficacy | – |
| Cc1ccc(C(=O)C(C)CN2CCCCC2)cc1 (stereo not shown) [tolperisone] | – | no relevant improvement of myotonia | – | – |

Source: patent EP3750528A1, “COMPOSITIONS FOR TREATING DYSTROPHIES AND MYOTONIA” (Nexien Biopharma, Inc., priority 2019, dated 2020)
